Assay results as given in patent US4479951A, “1.4;3.6-Dianhydrohexitol nitrates substituted by purine bases, processes for their preparation and pharmaceutical compositions” (Dr. Willmar Schwabe GmbH & Co., priority 1980, dated 1984).

System: mongrel dogs
Assay: circulatory-pharmacological effectiveness on the narcotised dog, intravenous administration
Assay type: in vivo

Nc1ncnc2c1ncn2[C@H]1CO[C@H]2[C@@H]1OC[C@@H]2O[N+](=O)[O-] [1c/2c, 5-(9-Adenyl)-5-desoxy-1.4;3.6-dianhydro-L-iditol 2-nitrate]
APdiast: diastolic aorta pressure (40 min after i.v. 1 mg/kg): 81.0 mm.Hg
APsyst: systolic aorta pressure (40 min after i.v. 1 mg/kg): 126.6 mm.Hg
BFFem: blood flow in the A. femoralis, referred to 20 kg. body weight (40 min after i.v. 1 mg/kg): 46.3 mL/min
HF: heart frequency (40 min after i.v. 1 mg/kg): 120.7 min⁻¹
HLL: heart capacity left, referred to 20 kg. body weight (40 min after i.v. 1 mg/kg): 0.76 W
HLR: heart capacity right, referred to 20 kg. body weight (40 min after i.v. 1 mg/kg): 89.3 mW
HZV: heart minute volume, referred to 20 kg. body weight (40 min after i.v. 1 mg/kg): 3.72 L/min
LVEDP: end diastolic pressure in the left ventricle (40 min after i.v. 1 mg/kg): 4.41 mm.Hg
PAP: average pressure in the A. pulmonalis (40 min after i.v. 1 mg/kg): 14.1 ±1.8 mm.Hg
PRA: pressure in the right atrium (40 min after i.v. 1 mg/kg): 3.37 mm.Hg
SV: beat volume, referred to 20 kg. body weight (40 min after i.v. 1 mg/kg): 32.7 mL
WAP: pulmonalis resistance, referred to 20 kg. body weight (40 min after i.v. 1 mg/kg): 0.35 U
WFem: femoralis resistance, referred to 20 kg. body weight (40 min after i.v. 1 mg/kg): 0.27 KU
WTP: total peripheral resistance, referred to 20 kg. body weight (40 min after i.v. 1 mg/kg): 3.34 U
dp/dt: rate of pressure increase in the left ventricle (40 min after i.v. 1 mg/kg): 2137.5 mm.Hg/sec.
APdiast: diastolic aorta pressure (50 min after i.v. 1 mg/kg): 83.4 mm.Hg
APsyst: systolic aorta pressure (50 min after i.v. 1 mg/kg): 131.2 mm.Hg
BFFem: blood flow in the A. femoralis, referred to 20 kg. body weight (50 min after i.v. 1 mg/kg): 50.6 mL/min
HF: heart frequency (50 min after i.v. 1 mg/kg): 118.7 min⁻¹
HLL: heart capacity left, referred to 20 kg. body weight (50 min after i.v. 1 mg/kg): 0.75 W
HLR: heart capacity right, referred to 20 kg. body weight (50 min after i.v. 1 mg/kg): 83.6 mW
HZV: heart minute volume, referred to 20 kg. body weight (50 min after i.v. 1 mg/kg): 3.55 L/min
LVEDP: end diastolic pressure in the left ventricle (50 min after i.v. 1 mg/kg): 4.69 mm.Hg
PAP: average pressure in the A. pulmonalis (50 min after i.v. 1 mg/kg): 13.9 ±1.9 mm.Hg
PRA: pressure in the right atrium (50 min after i.v. 1 mg/kg): 3.43 mm.Hg
SV: beat volume, referred to 20 kg. body weight (50 min after i.v. 1 mg/kg): 32.0 mL
WAP: pulmonalis resistance, referred to 20 kg. body weight (50 min after i.v. 1 mg/kg): 0.34 U
WFem: femoralis resistance, referred to 20 kg. body weight (50 min after i.v. 1 mg/kg): 0.26 KU
WTP: total peripheral resistance, referred to 20 kg. body weight (50 min after i.v. 1 mg/kg): 3.61 U
dp/dt: rate of pressure increase in the left ventricle (50 min after i.v. 1 mg/kg): 2118.5 mm.Hg/sec.
APdiast: diastolic aorta pressure (60 min after i.v. 1 mg/kg): 87.6 mm.Hg
APsyst: systolic aorta pressure (60 min after i.v. 1 mg/kg): 133.1 mm.Hg
BFFem: blood flow in the A. femoralis, referred to 20 kg. body weight (60 min after i.v. 1 mg/kg): 50.4 mL/min
HF: heart frequency (60 min after i.v. 1 mg/kg): 114.2 min⁻¹
HLL: heart capacity left, referred to 20 kg. body weight (60 min after i.v. 1 mg/kg): 0.79 W
HLR: heart capacity right, referred to 20 kg. body weight (60 min after i.v. 1 mg/kg): 89.5 mW
HZV: heart minute volume, referred to 20 kg. body weight (60 min after i.v. 1 mg/kg): 3.73 L/min
LVEDP: end diastolic pressure in the left ventricle (60 min after i.v. 1 mg/kg): 4.78 mm.Hg
PAP: average pressure in the A. pulmonalis (60 min after i.v. 1 mg/kg): 14.1 ±2.0 mm.Hg
PRA: pressure in the right atrium (60 min after i.v. 1 mg/kg): 3.37 mm.Hg
SV: beat volume, referred to 20 kg. body weight (60 min after i.v. 1 mg/kg): 35.6 mL
WAP: pulmonalis resistance, referred to 20 kg. body weight (60 min after i.v. 1 mg/kg): 0.33 U
WFem: femoralis resistance, referred to 20 kg. body weight (60 min after i.v. 1 mg/kg): 0.26 KU
WTP: total peripheral resistance, referred to 20 kg. body weight (60 min after i.v. 1 mg/kg): 3.46 U
dp/dt: rate of pressure increase in the left ventricle (60 min after i.v. 1 mg/kg): 2118.5 mm.Hg/sec.
APdiast: diastolic aorta pressure (90 min after i.v. 1 mg/kg): 87.6 mm.Hg
APsyst: systolic aorta pressure (90 min after i.v. 1 mg/kg): 136.9 mm.Hg
BFFem: blood flow in the A. femoralis, referred to 20 kg. body weight (90 min after i.v. 1 mg/kg): 50.8 mL/min
HF: heart frequency (90 min after i.v. 1 mg/kg): 107.5 min⁻¹
HLL: heart capacity left, referred to 20 kg. body weight (90 min after i.v. 1 mg/kg): 0.82 W
HLR: heart capacity right, referred to 20 kg. body weight (90 min after i.v. 1 mg/kg): 91.5 mW
HZV: heart minute volume, referred to 20 kg. body weight (90 min after i.v. 1 mg/kg): 3.77 L/min
LVEDP: end diastolic pressure in the left ventricle (90 min after i.v. 1 mg/kg): 5.25 mm.Hg
PAP: average pressure in the A. pulmonalis (90 min after i.v. 1 mg/kg): 14.5 ±2.1 mm.Hg
PRA: pressure in the right atrium (90 min after i.v. 1 mg/kg): 3.85 mm.Hg
SV: beat volume, referred to 20 kg. body weight (90 min after i.v. 1 mg/kg): 37.1 mL
WAP: pulmonalis resistance, referred to 20 kg. body weight (90 min after i.v. 1 mg/kg): 0.32 U
WFem: femoralis resistance, referred to 20 kg. body weight (90 min after i.v. 1 mg/kg): 0.27 KU
WTP: total peripheral resistance, referred to 20 kg. body weight (90 min after i.v. 1 mg/kg): 3.59 U
dp/dt: rate of pressure increase in the left ventricle (90 min after i.v. 1 mg/kg): 2081.2 mm.Hg/sec.
APdiast: diastolic aorta pressure (120 min after i.v. 1 mg/kg): 93.7 mm.Hg
APsyst: systolic aorta pressure (120 min after i.v. 1 mg/kg): 143.4 mm.Hg
BFFem: blood flow in the A. femoralis, referred to 20 kg. body weight (120 min after i.v. 1 mg/kg): 58.6 mL/min
HF: heart frequency (120 min after i.v. 1 mg/kg): 98.7 min⁻¹
HLL: heart capacity left, referred to 20 kg. body weight (120 min after i.v. 1 mg/kg): 0.89 W
HLR: heart capacity right, referred to 20 kg. body weight (120 min after i.v. 1 mg/kg): 98.7 mW
HZV: heart minute volume, referred to 20 kg. body weight (120 min after i.v. 1 mg/kg): 3.85 L/min
LVEDP: end diastolic pressure in the left ventricle (120 min after i.v. 1 mg/kg): 6.37 mm.Hg
PAP: average pressure in the A. pulmonalis (120 min after i.v. 1 mg/kg): 15.1 ±2.3 mm.Hg
PRA: pressure in the right atrium (120 min after i.v. 1 mg/kg): 3.94 mm.Hg
SV: beat volume, referred to 20 kg. body weight (120 min after i.v. 1 mg/kg): 40.0 mL
WAP: pulmonalis resistance, referred to 20 kg. body weight (120 min after i.v. 1 mg/kg): 0.30 U
WFem: femoralis resistance, referred to 20 kg. body weight (120 min after i.v. 1 mg/kg): 0.25 KU
WTP: total peripheral resistance, referred to 20 kg. body weight (120 min after i.v. 1 mg/kg): 3.72 U
dp/dt: rate of pressure increase in the left ventricle (120 min after i.v. 1 mg/kg): 2043.7 mm.Hg/sec.
APdiast: diastolic aorta pressure (150 min after i.v. 1 mg/kg): 94.7 mm.Hg
APsyst: systolic aorta pressure (150 min after i.v. 1 mg/kg): 147.2 mm.Hg
BFFem: blood flow in the A. femoralis, referred to 20 kg. body weight (150 min after i.v. 1 mg/kg): 58.2 mL/min
HF: heart frequency (150 min after i.v. 1 mg/kg): 97.5 min⁻¹
HLL: heart capacity left, referred to 20 kg. body weight (150 min after i.v. 1 mg/kg): 0.91 W
HLR: heart capacity right, referred to 20 kg. body weight (150 min after i.v. 1 mg/kg): 98.0 mW
HZV: heart minute volume, referred to 20 kg. body weight (150 min after i.v. 1 mg/kg): 3.89 L/min
LVEDP: end diastolic pressure in the left ventricle (150 min after i.v. 1 mg/kg): 6.97 mm.Hg
PAP: average pressure in the A. pulmonalis (150 min after i.v. 1 mg/kg): 15.1 ±1.5 mm.Hg
PRA: pressure in the right atrium (150 min after i.v. 1 mg/kg): 4.03 mm.Hg
SV: beat volume, referred to 20 kg. body weight (150 min after i.v. 1 mg/kg): 41.0 mL
WAP: pulmonalis resistance, referred to 20 kg. body weight (150 min after i.v. 1 mg/kg): 0.27 U
WFem: femoralis resistance, referred to 20 kg. body weight (150 min after i.v. 1 mg/kg): 0.26 KU
WTP: total peripheral resistance, referred to 20 kg. body weight (150 min after i.v. 1 mg/kg): 3.73 U
dp/dt: rate of pressure increase in the left ventricle (150 min after i.v. 1 mg/kg): 1950.0 mm.Hg/sec.
APdiast: diastolic aorta pressure (180 min after i.v. 1 mg/kg): 91.9 mm.Hg
APsyst: systolic aorta pressure (180 min after i.v. 1 mg/kg): 143.4 mm.Hg
BFFem: blood flow in the A. femoralis, referred to 20 kg. body weight (180 min after i.v. 1 mg/kg): 59.4 mL/min
HF: heart frequency (180 min after i.v. 1 mg/kg): 95.5 min⁻¹
HLL: heart capacity left, referred to 20 kg. body weight (180 min after i.v. 1 mg/kg): 0.91 W
HLR: heart capacity right, referred to 20 kg. body weight (180 min after i.v. 1 mg/kg): 98.5 mW
HZV: heart minute volume, referred to 20 kg. body weight (180 min after i.v. 1 mg/kg): 4.03 L/min
LVEDP: end diastolic pressure in the left ventricle (180 min after i.v. 1 mg/kg): 7.69 mm.Hg
PAP: average pressure in the A. pulmonalis (180 min after i.v. 1 mg/kg): 14.9 ±1.3 mm.Hg
PRA: pressure in the right atrium (180 min after i.v. 1 mg/kg): 4.12 mm.Hg
SV: beat volume, referred to 20 kg. body weight (180 min after i.v. 1 mg/kg): 42.6 mL
WAP: pulmonalis resistance, referred to 20 kg. body weight (180 min after i.v. 1 mg/kg): 0.24 U
WFem: femoralis resistance, referred to 20 kg. body weight (180 min after i.v. 1 mg/kg): 0.24 KU
WTP: total peripheral resistance, referred to 20 kg. body weight (180 min after i.v. 1 mg/kg): 3.51 U
dp/dt: rate of pressure increase in the left ventricle (180 min after i.v. 1 mg/kg): 1593.7 mm.Hg/sec.
APdiast: diastolic aorta pressure (before i.v. 1 mg/kg (v)): 88.1 mm.Hg
APsyst: systolic aorta pressure (before i.v. 1 mg/kg (v)): 150.9 mm.Hg
BFFem: blood flow in the A. femoralis, referred to 20 kg. body weight (before i.v. 1 mg/kg (v)): 53.4 mL/min
HF: heart frequency (before i.v. 1 mg/kg (v)): 97.5 min⁻¹
HLL: heart capacity left, referred to 20 kg. body weight (before i.v. 1 mg/kg (v)): 0.83 W
HLR: heart capacity right, referred to 20 kg. body weight (before i.v. 1 mg/kg (v)): 96.0 mW
HZV: heart minute volume, referred to 20 kg. body weight (before i.v. 1 mg/kg (v)): 3.61 L/min
LVEDP: end diastolic pressure in the left ventricle (before i.v. 1 mg/kg (v)): 5.53 mm.Hg
PAP: average pressure in the A. pulmonalis (before i.v. 1 mg/kg (v)): 15.8 ±1.4 mm.Hg
PRA: pressure in the right atrium (before i.v. 1 mg/kg (v)): 3.94 mm.Hg
SV: beat volume, referred to 20 kg. body weight (before i.v. 1 mg/kg (v)): 38.3 mL
WAP: pulmonalis resistance, referred to 20 kg. body weight (before i.v. 1 mg/kg (v)): 0.38 U
WFem: femoralis resistance, referred to 20 kg. body weight (before i.v. 1 mg/kg (v)): 0.28 KU
WTP: total peripheral resistance, referred to 20 kg. body weight (before i.v. 1 mg/kg (v)): 3.94 U
dp/dt: rate of pressure increase in the left ventricle (before i.v. 1 mg/kg (v)): 2081.2 mm.Hg/sec.
